# According to article PMC9706563, “Development of Macrocyclic PRMT5–Adaptor Protein Interaction Inhibitors” (Journal of Medicinal Chemistry, 2022):
# “Also recorded” adds a separate entry of the source. Like-named read-outs stand apart in the source and are kept apart here.
# What was measured:
# PRMT5-MEP50 complex = molecular target: T1, PRMT5-MEP50 complex (Homo sapiens, UniProt O14744); assay: Pull-down with peptides immobilized on DBCO beads, MCF7 cell lysate; format: binding; conditions: for enrichment of the PRMT5-MEP50 complex by immobilized peptide: MCF7 cell lysate, DBCO beads, western blot
# T1 construct: endogenous in cells; host or cells: MCF7
# Method: DBCO agarose beads (300 μL; Jena Bioscience, Germany) were washed three times with PBS (600 μL, pH 7.4). To the beads suspended in PBS (600 μL) was added a 10 mM solution of azide-labeled peptide in DMSO or pure DMSO. The obtained suspensions were incubated overnight at 4 °C. The beads were washed with PBS three times for 10 min. MCF7 cells were harvested and lysed using Triton X100 lysis buffer (NaCl 150 mM, HEPES 25 mM, TCEP 1 mM, 1% Triton x100, 1% NP40 alternative, protease, and phosphatase inhibitor, pH 7.4). Empty beads, beads bound to an active peptide (55), or beads bound to a scrambled peptide (56) were added to the lysate (6 mg/mL) and rotated at 4 °C overnight. Beads attached to the active peptides were also incubated in the lysate containing a nonimmobilized/free active macrocycle (53 at 100 μM). Beads were collected by centrifugation (800g for 1 min) and washed three times for 10 min with PBS (500 μL). The beads were suspended in SDS-PAGE protein loading buffer (20 uL; […], 8% v/v glycerol, 2% SDS, […] (DTE), 0.02% bromophenol blue, pH 6.8), heated with shaking for 10 min at 95 °C, and centrifuged at 350 rpm. The obtained solutions were analyzed by western blotting using 10% acrylamide gels, and PVDF membranes and the relevant proteins were fluorescently detected using antibodies against PRMT5 and MEP50 and the corresponding secondary IRDye antibodies.
# PRMT5-MEP50 + pICln = molecular target: T2, PRMT5-MEP50 + pICln (Homo sapiens, UniProt O14744); assay: Competitive FP assay with Alexa 488-labeled full-length human pICln; format: binding
# T2 construct: made in house
# Method: To a solution of the full-length pICln protein (ca. 1 mg/mL) in 0.2 M bicarbonate buffer with 1 mM TCEP at pH 8.3 was added 10 mM Alexa […] in DMSO (8 equiv). The solution was kept on ice under dark conditions overnight. The protein was washed 8–10 times with a buffer intended for the fluorescence polarization assay (50 mM HEPES, 250 mM NaCl, 1 mM TCEP, 8.0 pH) using an Amicon Ultra-0.5 mL spin filter (Merck, Germany). Protein concentration was determined using the NanoDrop spectrophotometer.
# The competitive binding assay was performed in a buffer of 50 mM HEPES, 250 mM NaCl, 1 mM TCEP, and 0.01% (v/v) Tween 20, 8.0 pH, in black, 384-well plates with a total volume of 10 μL per well. […] The plates were incubated at room temperature for up to 1 h 45 min and analyzed on a plate reader using 485 nm excitation and 535 nm emission wavelength. The experiment was performed in triplicate.
# PRMT5-MEP50 [1] = molecular target: T3, PRMT5-MEP50 (Homo sapiens, UniProt O14744); assay: Competitive binding FP assay, FITC-labeled 50 as tracer
# T3 construct: The compounds were tested by means of FP with the full-length PRMT5-MEP50 complex; made in house
# Method: (§1) The competitive binding assay was performed in a buffer of 50 mM HEPES, 250 mM NaCl, 1 mM TCEP, and 0.01% (v/v) Tween 20, 8.0 pH, in black, 384-well plates with a total volume of 10 μL per well. The FITC-labeled peptides or the Alexa 488-labeled pICln protein, at a final concentration of 1 nM, were mixed with PRMT5-MEP50 (at a final concentration of 194 nM when used with peptide 50, 600 nM with compound S1 [see Table S3] and 21, and 27 nM in the case of Alexa 488-labeled pICln), and the appropriate nonlabeled peptide or protein was titrated as two-fold dilution series. The plates were incubated at room temperature for up to 1 h 45 min and analyzed on a plate reader using 485 nm excitation and 535 nm emission wavelength. The experiment was performed in triplicate.
# TIM-MEP50 complex = molecular target: T4, TIM-MEP50 complex (Homo sapiens, UniProt O14744); assay: Thermal shift assay (TSA); format: binding; conditions: for increase of the average melting temperature: TSA, PRMT5 TIM barrel-MEP50 complex, n = 6; for TSA Average Tm (°C): supplementary CSV
# T4 construct: made in house
# Method: Thermal Shift Assays of peptides on the TIM-MEP50 complex were carried out in a 96-well PCR plate (LightCycler 480 Multiwell Plates 96, white, 04729692001). The purified protein complex was appropriately diluted in a buffer containing 50 mM HEPES (pH = 8.0), 250 mM NaCl, and 1 mM TCEP. All assay experiments used 5.36 μg of protein per well and […] 5000X Sypro Orange (Invitrogen) up to a total volume of 25 μL, with a resultant protein concentration of 3 μM and 5X SYPRO. Peptides were supplied at 10 mM concentration in DMSO. The PCR plates were sealed with an optical seal (LightCycler 480 Sealing Foil, 04729757001), shaken, and centrifuged after protein and compounds were added. Thermal scanning (25–95 °C at 1 °C/min) was performed using a real-time PCR setup (LightCycler 480 – Roche), and fluorescence intensity was measured after every temperature increment step. Analysis of the raw data was performed using internally developed software. Statistical validation of Tm shift relevance was performed using the Student’s t test (n = 6).
# [2] = molecular target: T5, PRMT5-MEP50 / RioK1 interaction (Homo sapiens, UniProt O14744); assay: GFP immunopurification from Flp-In T-REx 293 S100 extracts, RioK1 readout; format: binding; conditions: 50 μM
# T5 construct: expressed in transfected cells; host or cells: Flp-In T-REx 293
# Method: (§2) Harvested Flp-In T-Rex 293 cells were incubated with Roeder A buffer[32] in three times sample weight for 10 min at room temperature, dounced 10 times, and adjusted to 150 mM NaCl. After centrifugation at 17,000 g for 30 min, the supernatants (S100 extracts) were used for immunopurification and treatment with inhibitors.
# (§3) For the treatment, the S100 extracts of GFP, GFP-PRMT5, GFP-RioK1, and GFP-pICln were incubated with DMSO, active 53, and scrambled 54, used at a concentration of 50 μM. The incubation with the S100 extract was carried out for 1 h at room temperature. For GFP immunopurification, S100 extracts were incubated with GFP-Trap_A beads (ChromoTek) at 4 °C for 2 h with rotation. Purified proteins were washed 3 times with washing buffer (150 mM NaCl, 50 mM Tris/HCl pH 7.5, 1 mM EDTA, 1 mM EGTA, and 0.01% Igepal with protease inhibitors), eluted in sample buffer [375 mM Tris pH 7.5; 25.8% (w/v) glycerol; 12.3% (w/v) SDS; 0.06% (w/v) bromophenol blue; and 6% (v/v) β-mercaptoethanol; pH 6.8], and analyzed by immunoblotting.
# (§4) Immunopurification samples were separated by Tris/Tricine or Tris/Glycine SDS gel electrophoresis[33] and transferred to PVDF membranes (Immobilon-FL, Merck Millipore). The immunoblot analysis was performed using the indicated antibodies against RioK1, PRMT5, MEP50, pICln, and GFP, and the signals were detected with an Odyssey LI-COR Imaging System.
# [3] = molecular target: T6, PRMT5-MEP50 / pICln interaction (Homo sapiens, UniProt O14744); assay: GFP immunopurification from Flp-In T-REx 293 S100 extracts, pICln readout; format: binding; conditions: 50 μM
# T6 construct: expressed in transfected cells; host or cells: Flp-In T-REx 293
# Method: as §2, §3, §4
# PRMT5-MEP50 [4] = molecular target: T3, PRMT5-MEP50; assay: Competitive binding FP assay, compound 21 as tracer
# Method: as §1
# PRMT5-MEP50 [5] = molecular target: T3, PRMT5-MEP50; assay: MTase-Glo methyltransferase activity assay; format: biochemical; conditions: H4 histone tail peptide substrate
# Method: The assay was performed in 1× reaction buffer of 20 mM Tris, 50 mM NaCl, 1 mM EDTA, 3 mM MgCl2, 0.1 mg/mL BSA, and 1 mM DTT at pH = 8.0 in white, 384-well plates. […] The plate was incubated at 20–21 °C for 1 h. MTase-Glo detection solution (5 μL) was added, and the plate was incubated at 20–21 °C for 1 h, followed by a luminescence measurement at a plate reader. The experiment was performed in triplicate.
# [6] = Stability assay in cell lysate; format: in vitro ADME
# Method: To the whole cell lysate prepared from U2OS cells with the freeze–thaw method was added the appropriate peptide, resulting in a mixture of 0.5 mg/mL protein and 600 μM peptide in PBS, and incubated at 37 °C. The samples were taken at 0, 15, 30 min, 1, 2, 4 h, 1, 3, and 7-days time points and mixed with an equal volume of ice-cold ethylparaben solution in MeOH (0.1 mg/mL), used as the internal standard. The samples were kept on ice for 15 min and centrifuged at 16,873 × g at 4 °C for 5 min. The obtained supernatant was then analyzed by HPLC, the peptide and the internal standard peaks at 210 nm were integrated, and the ratio of the peptide peak surface area to the internal standard was calculated. The experiment was conducted in duplicate.
# T3 sequence (O14744 whole entry): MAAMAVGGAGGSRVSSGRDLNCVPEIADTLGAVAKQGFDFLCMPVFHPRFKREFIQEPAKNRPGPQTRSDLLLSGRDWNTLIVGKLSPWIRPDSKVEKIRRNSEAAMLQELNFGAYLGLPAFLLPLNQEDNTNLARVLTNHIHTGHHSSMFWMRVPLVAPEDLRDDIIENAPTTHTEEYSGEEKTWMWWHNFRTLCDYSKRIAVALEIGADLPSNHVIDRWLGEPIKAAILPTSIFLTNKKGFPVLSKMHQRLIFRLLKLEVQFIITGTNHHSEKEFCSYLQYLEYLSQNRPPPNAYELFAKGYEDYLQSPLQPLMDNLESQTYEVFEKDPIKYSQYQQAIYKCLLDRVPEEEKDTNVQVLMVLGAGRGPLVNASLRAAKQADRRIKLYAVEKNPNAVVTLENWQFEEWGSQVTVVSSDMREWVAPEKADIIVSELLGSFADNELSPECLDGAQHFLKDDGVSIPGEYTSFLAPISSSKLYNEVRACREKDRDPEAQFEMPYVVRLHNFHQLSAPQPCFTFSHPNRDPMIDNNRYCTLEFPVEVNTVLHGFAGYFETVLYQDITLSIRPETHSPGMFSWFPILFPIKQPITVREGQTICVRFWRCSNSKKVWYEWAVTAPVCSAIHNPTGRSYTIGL
# T3 sequence (Q9BQA1 whole entry partner): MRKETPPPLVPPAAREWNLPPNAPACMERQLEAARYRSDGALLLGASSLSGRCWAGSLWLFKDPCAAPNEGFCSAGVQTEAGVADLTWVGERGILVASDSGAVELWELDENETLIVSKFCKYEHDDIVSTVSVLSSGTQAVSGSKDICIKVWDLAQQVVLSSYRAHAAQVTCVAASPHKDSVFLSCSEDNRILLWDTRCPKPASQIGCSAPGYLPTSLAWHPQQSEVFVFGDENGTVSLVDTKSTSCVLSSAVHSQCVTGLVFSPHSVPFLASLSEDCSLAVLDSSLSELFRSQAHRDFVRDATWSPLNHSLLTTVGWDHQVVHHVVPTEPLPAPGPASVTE
# T2 sequence (O14744 whole entry): as the sequence (O14744 whole entry) above
# T2 sequence (Q9BQA1 whole entry partner): as the sequence (Q9BQA1 whole entry partner) above
# T1 sequence (O14744 whole entry): as the sequence (O14744 whole entry) above
# T1 sequence (Q9BQA1 whole entry partner): as the sequence (Q9BQA1 whole entry partner) above
# T4 sequence (O14744 13-292 limits assumed): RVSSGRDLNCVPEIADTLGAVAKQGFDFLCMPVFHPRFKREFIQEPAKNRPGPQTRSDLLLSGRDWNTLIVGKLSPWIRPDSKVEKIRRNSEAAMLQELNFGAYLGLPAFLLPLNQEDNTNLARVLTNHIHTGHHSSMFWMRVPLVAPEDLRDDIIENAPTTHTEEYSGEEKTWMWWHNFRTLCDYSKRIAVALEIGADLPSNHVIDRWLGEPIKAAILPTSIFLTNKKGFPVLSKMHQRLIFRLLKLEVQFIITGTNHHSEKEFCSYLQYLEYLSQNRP
# T4 sequence (Q9BQA1 whole entry partner): as the sequence (Q9BQA1 whole entry partner) above
# T6 sequence (O14744 whole entry): as the sequence (O14744 whole entry) above
# T6 sequence (Q9BQA1 whole entry partner): as the sequence (Q9BQA1 whole entry partner) above
# T5 sequence (O14744 whole entry): as the sequence (O14744 whole entry) above
# T5 sequence (Q9BQA1 whole entry partner): as the sequence (Q9BQA1 whole entry partner) above
smiles,measurement,setting,value
CC(=O)N1CCC[C@H]1C(=O)N[C@H](C(=O)N[C@@H]1CCCCC[C@@H](C(=O)N[C@@H](Cc2ccc([N+](=O)[O-])cc2)C(=O)N[C@@H](CC(C(=O)O)C(=O)O)C(=O)N[C@@H](CCC(N)=O)C(=O)N[C@@H](CCCCNC(=O)COCCOCCOCCN=[N+]=[N-])C(N)=O)NC(=O)[C@H](CC(=O)O)NC(=O)[C@H](C)NC1=O)C(C)C [Compound 56],enrichment of the PRMT5-MEP50 complex by immobilized peptide,PRMT5-MEP50 complex,did not show significant interaction
CC(=O)N1CCC[C@H]1C(=O)N[C@H](C(=O)N[C@@H]1CCCCC[C@@H](C(=O)N[C@@H](Cc2ccc([N+](=O)[O-])cc2)C(=O)N[C@@H](CC(C(=O)O)C(=O)O)C(=O)N[C@@H](CCC(N)=O)C(N)=O)NC(=O)[C@H](CC(=O)O)NC(=O)[C@H](C)NC1=O)C(C)C [Compound 54],IC50,"PRMT5-MEP50 + pICln; competition with Alexa 488-labeled pICln, 27 nM PRMT5-MEP50",did not compete
same,PRMT5-MEP50 + pICln IC50 (µM),"PRMT5-MEP50 + pICln; competition with labeled pICln, supplementary CSV",nb
same,Ki,PRMT5-MEP50 [1]; from competitive FP with tracer 50,n.b.
same,PRMT5-MEP50 Ki (µM),"PRMT5-MEP50 [1]; from competitive FP with tracer 50, supplementary CSV",nb
same,increase of the average melting temperature,TIM-MEP50 complex,No stabilization
same,TSA Average Tm (°C),TIM-MEP50 complex,49.32 ± 0.18 °C
CC(=O)N[C@H](C(=O)N1CCC[C@H]1C(=O)N[C@@H]1CCCCC[C@@H](C(=O)N[C@@H](CC(=O)O)C(=O)N[C@@H](C)C(=O)N[C@@H](CC(C(=O)O)C(=O)O)C(=O)N[C@@H](CCCCNC(=O)COCCOCCOCCN=[N+]=[N-])C(N)=O)NC(=O)[C@H](Cc2ccc([N+](=O)[O-])cc2)NC(=O)[C@H](CCC(N)=O)NC1=O)C(C)C [Compound 55],enrichment of the PRMT5-MEP50 complex by immobilized peptide,PRMT5-MEP50 complex,successfully enriched the PRMT5-MEP50 complex
CC(=O)N[C@H](C(=O)N1CCC[C@H]1C(=O)NC1CCCCC[C@@H](C(=O)N[C@@H](CC(=O)O)C(=O)N[C@@H](C)C(=O)N[C@@H](CC(C(=O)O)C(=O)O)C(N)=O)NC(=O)[C@H](Cc2ccc([N+](=O)[O-])cc2)NC(=O)[C@H](CCC(N)=O)NC1=O)C(C)C (stereo in doubt) [Compound 53],increase of the average melting temperature,TIM-MEP50 complex,2.27 °C
same,TSA Average Tm (°C),TIM-MEP50 complex,51.75 ± 0.42 °C
same,enrichment of RioK1 with GFP-PRMT5,[2]; GFP-PRMT5 IP,enrichment of RioK1 was blocked
same,interaction of RioK1 with PRMT5-MEP50,[2]; GFP-RioK1 IP,fully inhibited RioK1 from interacting with the PRMT5-MEP50 complex
same,competition of free peptide with immobilized 55,PRMT5-MEP50 complex; 100 μM nonimmobilized peptide in MCF7 lysate,demonstrated competition between the immobilized and free peptide
same,binding of pICln to the complex with GFP-PRMT5,[3]; GFP-PRMT5 IP,binding of pICln to the complex was not inhibited
same,interaction of pICln with PRMT5-MEP50,[3]; GFP-pICln IP,pICln still engaged with it
CC(=O)N[C@H](C(=O)N1CCC[C@H]1C(=O)NC1CCCCC[C@@H](C(=O)N[C@@H](CC(=O)O)C(=O)N[C@@H](C)C(=O)N[C@@H](CC(=O)O)C(N)=O)NC(=O)[C@H](Cc2ccccc2)NC(=O)[C@H](CCC(N)=O)NC1=O)C(C)C (stereo in doubt) [Compound 30],IC50,"PRMT5-MEP50 + pICln; competition with labeled pICln, supplementary CSV, read-out: PRMT5-MEP50 + pICln IC50",3.2 ± 2.4 µM
same,IC50,"PRMT5-MEP50 [1]; competitive FP, compound 50 as tracer, 194 nM PRMT5-MEP50",1.06 ± 0.24 µM
same,IC50,"PRMT5-MEP50 [4]; competitive FP, compound 21 as tracer, 600 nM PRMT5-MEP50",1.17 ± 0.29 µM
same,Ki,PRMT5-MEP50 [4]; from competitive FP with tracer 21,0.313 ± 0.121 µM
same,TSA Average Tm (°C),TIM-MEP50 complex,51.32 ± 0.00 °C
same,effect on direct methylation activity of PRMT5,PRMT5-MEP50 [5],has no effect; also recorded: does not interfere with the direct methylation activity of the enzyme
same,half-life,"[6]; U2OS cell lysate, 37 °C, 600 μM peptide, read-out: half-life (converted)",12.5 days
same,increase of half-life over the linear 31,"[6]; cell lysate, 37 °C",70 fold
same,Half-llife in Lysate,[6]; supplementary CSV,12.5 days
"O=C(NC[C@H](O)CN1CCc2ccccc2C1)c1cc(NC2COC2)ncn1 [EPZ015666, reference compound]",effect on direct methylation activity of PRMT5,PRMT5-MEP50 [5],is able to inhibit
